Measurements reported in patent US10251854B2, “S-(carboxymethyl)-cysteine pharmaceutical compound and preparation method and use thereof” (Guangzhou Baiyunshan Pharmaceutical Holdings Co., Ltd. …, priority 2013, dated 2019).
Where a name gives a salt, the structure may show the parent alone. Read-outs that look alike come from different tables or passages of the source.

Legend:
[1] = Storage at room temperature (character, moisture absorption); type: physicochemical; settings: stored for a period of time at room temperature
From the text: The S-(carboxymethyl)-L-cysteine ammonium salt monohydrate crystals of the present invention have a relatively uniform particle size distribution.

[2] = system: rat COPD model; test: Rat COPD model: oxidization indexes (LPO, MDA); type: in vivo; settings: x ± SD
Protocol: (§1) 1.1 Preparation of Rat COPD Models
(§2) A method of establishing a rat COPD model by fumigation plus endotoxin lipopolysaccharide (LPS) endotracheal drop, which is commonly used at home and abroad at present was adopted. The period is 3 months (90 days). Specific method: on the 1st, the 15th, the 29th, the 43rd, the 57th, the 71st and the 85th days of the test, the rats were anesthetized with ethylether, the roots of tongues of the rats were pulled out, and LPS (200 ug/200 ul) was dripped through tracheas by bend gavage needle heads. The rats of the normal group were dripped with physiological saline of equal amount by the same method, and weren't fumigated. The rats of the other five groups were fumigated in a self-made fumigation bin. One side of the fumigation bin was externally connected with a negative pressure pump, and the top thereof was connected with a port for inserting cigarettes. With the negative press pump turned on, the cigarettes were lit, and the smoke of the cigarettes was absorbed into the fumigation bin. In order to prevent the animals from death caused by anoxia, 12 cigarettes were lit every time, and the lid of the fumigation bin was opened 20 min after fumigation for letting in fresh air. The operation was performed 1 h/3 times/day, with the LPS (200 ug/200 ul) being dripped through the tracheas by bend gavage needle heads.
(§3) 1.2 Pharmacological Intervention
(§4) The test was 90 days long. The pharmacological intervention was started from the 15th day, the rats of the positive group were perfused with carbocisteine, the rats of the low, medium and high test groups were perfused with different doses of test medicines, and the rats of the model group and the normal group were perfused with physiological saline of equal amount.
(§5) 1.3 Indexes Determination
(§6) Blood was taken from the orbit of each rat on the second day after the test was over, serum was separated, a complete stomach was cut and washed, lung tissue was preserved, the stomach and the right upper lung were left for pathobiology test, after the rest of the lung was subjected to lung tissue homogenate, the indexes of oxidization and antioxidation, the contents of lipid peroxide (LPO), malondialdehyde (MDA) and reduced glutathione (GSH), the activity of superoxide dismutase (SOD) and the concentration of inflammatory medium TNF-α, IL-8 and IL-6 were detected.

[3] = Solubility in several solvents (25° C.); type: physicochemical
[4] = system: rat COPD model; test: Rat COPD model: inflammation indexes (TNF-α, IL-8, IL-6); type: in vivo; settings: x ± SD
Protocol: as §1, §2, §3, §4, §5, §6

[5] = Water solubility; type: physicochemical
From the text: (§7) In a preferred embodiment of the present invention, the S-(carboxymethyl)-L-cysteine ammonium salt monohydrate crystalline compound is a soluble double salt formed by the acidity of the carboxyl thereof and the alkalinity of the aqueous ammonia. […] In addition, the medicine, after being absorbed by the body, can be hydrolysed into S-(carboxymethyl)-L-cysteine and ammonium chloride with the effect of gastric acid, which can not only reduce the irritation of S-(carboxymethyl)-L-cysteine to the gastrointestinal tract, but also neutralize the excessive gastric acid. After the S-(carboxymethyl)-L-cysteine ammonium salt monohydrate crystal is hydrolysed, the S-(carboxymethyl)-L-cysteine in the body continues giving play to pharmacological effects thereof. At the same time, the ammonium chloride obtained from hydrolysis has chemical irritation to the mucous membrane, which can reflectively increase the amount of sputum to easily remove the sputum, and is conducive to removing a small amount of sputum which is difficult to be coughed out, thereby enhancing the sputum-resolving effect of the S-(carboxymethyl)-L-cysteine, and improving the curative effect. The S-(carboxymethyl)-L-cysteine ammonium salt is safe, has small side effect, and can be used for patients suffering from chronic obstructive pulmonary disease and the like to take for a long time.

[6] = system: rat COPD model; test: Rat COPD model: antioxidation indexes (GSH, SOD); type: in vivo; settings: x ± SD
Protocol: as §1, §2, §3, §4, §5, §6

[7] = pH value of 1% solution/suspension by pH meter; type: physicochemical; settings: n=6
From the text: as §7

[8] = system: patients suffering from COPD; settings: 1500 mg/d, 12 months; cited from earlier work
[9] = system: chronic obstructive pulmonary disease; settings: 1500 mg/d, 12 months; cited from earlier work
[10] = system: patients suffering from COPD; settings: 142 patients; 1500 mg/d, 12 months; cited from earlier work
[11] = system: gastric mucosa of rats; test: Rat COPD model: pathological changes of stomachs; type: in vivo; settings: perfused from the 15th day of the 90 day test
Protocol: A method of establishing a rat COPD model by fumigation plus endotoxin lipopolysaccharide (LPS) endotracheal drop, which is commonly used at home and abroad at present was adopted. The period is 3 months (90 days). Specific method: on the 1st, the 15th, the 29th, the 43rd, the 57th, the 71st and the 85th days of the test, the rats were anesthetized with ethylether, the roots of tongues of the rats were pulled out, and LPS (200 ug/200 ul) was dripped through tracheas by bend gavage needle heads. The rats of the normal group were dripped with physiological saline of equal amount by the same method, and weren't fumigated. The rats of the other five groups were fumigated in a self-made fumigation bin. […]
as §6

N[C@@H](CSCC(=O)O)C(=O)O [L-ammonium, S-(carboxymethyl)-L-cysteine ammonium salt monohydrate]
absorption of moisture [1]: insusceptible to absorption of moisture
character changes after storage [1]: no obvious character changes
LPO Lung tissue ([2]; high dose group): 13.51 ± 1.66 nmol/mL
LPO Serum ([2]; high dose group): 3.22 ± 0.85 nmol/mL
MDA Lung tissue ([2]; high dose group): 3.68 ± 0.87 µmol/mL
MDA Serum ([2]; high dose group): 5.88 ± 1.26 µmol/mL
LPO Lung tissue ([2]; low dose group): 16.24 ± 2.32 nmol/mL
LPO Serum ([2]; low dose group): 4.75 ± 1.30 nmol/mL
MDA Lung tissue ([2]; low dose group): 4.03 ± 1.27 µmol/mL
MDA Serum ([2]; low dose group): 7.28 ± 1.33 µmol/mL
LPO Lung tissue ([2]; medium dose group): 15.58 ± 2.73 nmol/mL
LPO Serum ([2]; medium dose group): 3.77 ± 1.15 nmol/mL
MDA Lung tissue ([2]; medium dose group): 3.88 ± 0.59 µmol/mL
MDA Serum ([2]; medium dose group): 6.20 ± 3.23 µmol/mL
Solubility ([3]; Absolute ethyl alcohol): Very slightly soluble
Solubility ([3]; Acetone): Very slightly soluble
Solubility ([3]; Acetonitrile): Very slightly soluble
Solubility ([3]; Isopropanol): Very slightly soluble
Solubility ([3]; Methanol): Very slightly soluble
Solubility ([3]; N,N-Dimethylformamide): Very slightly soluble
IL-6 Lung tissue ([4]; high dose group): 9.28 ± 4.49 pg/mL
IL-6 Serum ([4]; high dose group): 5.83 ± 1.51 pg/mL
IL-8 Lung tissue ([4]; high dose group): 8.17 ± 1.06 pg/mL
IL-8 Serum ([4]; high dose group): 5.36 ± 1.51 pg/mL
TNF-α Lung tissue ([4]; high dose group): 15.15 ± 4.20 pg/mL
TNF-α Serum ([4]; high dose group): 13.02 ± 5.32 pg/mL
IL-6 Lung tissue ([4]; low dose group): 14.72 ± 5.51 pg/mL
IL-6 Serum ([4]; low dose group): 7.02 ± 3.30 pg/mL
IL-8 Lung tissue ([4]; low dose group): 9.97 ± 1.24 pg/mL
IL-8 Serum ([4]; low dose group): 7.90 ± 2.16 pg/mL
TNF-α Lung tissue ([4]; low dose group): 20.60 ± 9.60 pg/mL
TNF-α Serum ([4]; low dose group): 17.98 ± 3.94 pg/mL
IL-6 Lung tissue ([4]; medium dose group): 12.91 ± 2.47 pg/mL
IL-6 Serum ([4]; medium dose group): 6.24 ± 2.12 pg/mL
IL-8 Lung tissue ([4]; medium dose group): 8.66 ± 2.54 pg/mL
IL-8 Serum ([4]; medium dose group): 6.30 ± 2.17 pg/mL
TNF-α Lung tissue ([4]; medium dose group): 19.98 ± 8.78 pg/mL
TNF-α Serum ([4]; medium dose group): 15.11 ± 4.38 pg/mL
water solubility ([5]; listed as S-(carboxymethyl)-L-cysteine ammonium salt monohydrate crystal, ammonium salt monohydrate): extremely easily soluble in water
GSH Lung tissue ([6]; high dose group): 141.69 ± 28.40 µmol/L
GSH Serum ([6]; high dose group): 232.93 ± 40.49 µmol/L
SOD Lung tissue ([6]; high dose group): 77.56 ± 18.09 U/mL
SOD Serum ([6]; high dose group): 140.69 ± 32.13 U/mL
GSH Lung tissue ([6]; low dose group): 113.59 ± 24.32 µmol/L
GSH Serum ([6]; low dose group): 140.64 ± 19.66 µmol/L
SOD Lung tissue ([6]; low dose group): 60.38 ± 16.04 U/mL
SOD Serum ([6]; low dose group): 90.80 ± 15.13 U/mL
GSH Lung tissue ([6]; medium dose group): 124.19 ± 30.78 µmol/L
GSH Serum ([6]; medium dose group): 175.61 ± 31.11 µmol/L
SOD Lung tissue ([6]; medium dose group): 70.71 ± 11.16 U/mL
SOD Serum ([6]; medium dose group): 102.98 ± 23.26 U/mL
pH value ([7]; 1% compound, pH meter): 6.60±0.36

N[C@@H](CSCC(=O)O)C(=O)O [carbocisteine, S-(carboxymethyl)-L-cysteine, reference compound]
LPO Lung tissue ([2]; positive group): 17.44 ± 2.43 nmol/mL
LPO Serum ([2]; positive group): 5.12 ± 1.09 nmol/mL
MDA Lung tissue ([2]; positive group): 4.76 ± 0.70 µmol/mL
MDA Serum ([2]; positive group): 7.34 ± 2.19 µmol/mL
IL-6 Lung tissue ([4]; positive group): 14.24 ± 6.26 pg/mL
IL-6 Serum ([4]; positive group): 8.13 ± 2.87 pg/mL
IL-8 Lung tissue ([4]; positive group): 10.91 ± 2.30 pg/mL
IL-8 Serum ([4]; positive group): 7.87 ± 3.08 pg/mL
TNF-α Lung tissue ([4]; positive group): 25.17 ± 8.28 pg/mL
TNF-α Serum ([4]; positive group): 18.37 ± 4.55 pg/mL
water solubility [5]: poorer water solubility
GSH Lung tissue ([6]; positive group): 107.26 ± 23.52 µmol/L
GSH Serum ([6]; positive group): 132.31 ± 24.04 µmol/L
SOD Lung tissue ([6]; positive group): 62.28 ± 15.12 U/mL
SOD Serum ([6]; positive group): 96.16 ± 23.03 U/mL
pH ([7]; 1% suspension per Chinese Pharmacopoeia (2010 Edition)): 2.93±0.20
frequency of catching colds and acute exacerbation of COPD [8]: the frequency of catching colds is reduced and the acute exacerbation of COPD is relieved
annual acute morbidity per person reduced by [9]: 24.5%
prevention of acute COPD [10]: prevented from acute COPD
Pathological changes of stomachs / irritation to the gastrointestinal tract [11]: mild irritations such as mild hyperaemia and edema, and larger inflammatory cell infiltration
Pathological changes of stomachs / irritation to the gastrointestinal tract ([11]; listed as positive group): mild edema and hyperemia and serious inflammatory cell infiltration in the gastric mucosa layers
